In patent US10494332B2, “Protein tyrosine phosphatases or SHP2 inhibitors and uses thereof” (Indiana University Research and Technology Corporation, priority 2015, dated 2019):
Like-named read-outs stand apart in the source and are kept apart here.

Tests used:
Type in all cases: biochemical
[1] = target: T1, LMWPTP (Homo sapiens, UniProt P24666); assay: PTP inhibition assay (pNPP)
T1 sequence (P24666 1-158): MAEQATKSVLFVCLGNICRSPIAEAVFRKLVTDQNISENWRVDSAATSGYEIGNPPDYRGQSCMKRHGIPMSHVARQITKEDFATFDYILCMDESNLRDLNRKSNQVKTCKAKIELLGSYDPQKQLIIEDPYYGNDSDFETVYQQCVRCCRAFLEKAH

[2] = target: T2, HePTP (Homo sapiens, UniProt P35236); assay: PTP inhibition assay (pNPP); conditions: […]; HePTP
T2 sequence (P35236 1-360): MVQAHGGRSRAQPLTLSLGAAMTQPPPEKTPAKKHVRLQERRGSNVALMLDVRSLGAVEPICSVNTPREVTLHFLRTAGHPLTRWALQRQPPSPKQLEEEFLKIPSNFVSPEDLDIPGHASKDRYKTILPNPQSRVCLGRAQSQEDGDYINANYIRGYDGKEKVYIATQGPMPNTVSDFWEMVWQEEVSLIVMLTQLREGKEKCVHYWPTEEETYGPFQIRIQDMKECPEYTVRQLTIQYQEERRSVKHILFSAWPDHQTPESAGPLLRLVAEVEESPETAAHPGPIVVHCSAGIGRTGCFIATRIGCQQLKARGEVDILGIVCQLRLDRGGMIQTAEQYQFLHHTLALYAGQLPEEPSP

[3] = target: T3, SHP2 (Homo sapiens, UniProt Q06124); assay: SHP2 phosphatase inhibition assay (pNPP); conditions: for IC50: read-out: IC50 SHP2
T3 sequence (Q06124 224-528): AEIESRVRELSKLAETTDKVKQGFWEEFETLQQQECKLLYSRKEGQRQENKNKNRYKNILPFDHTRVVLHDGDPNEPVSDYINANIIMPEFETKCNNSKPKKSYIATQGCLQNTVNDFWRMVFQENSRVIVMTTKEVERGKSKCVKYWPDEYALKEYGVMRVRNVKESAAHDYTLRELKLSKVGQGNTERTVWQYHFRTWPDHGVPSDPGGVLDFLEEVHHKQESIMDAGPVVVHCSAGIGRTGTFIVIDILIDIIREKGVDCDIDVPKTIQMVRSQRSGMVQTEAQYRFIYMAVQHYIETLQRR

[4] = target: T4, LYP (Homo sapiens, UniProt Q9Y2R2); assay: PTP inhibition assay (pNPP); conditions: […]; LYP
T4 sequence (Q9Y2R2 1-807): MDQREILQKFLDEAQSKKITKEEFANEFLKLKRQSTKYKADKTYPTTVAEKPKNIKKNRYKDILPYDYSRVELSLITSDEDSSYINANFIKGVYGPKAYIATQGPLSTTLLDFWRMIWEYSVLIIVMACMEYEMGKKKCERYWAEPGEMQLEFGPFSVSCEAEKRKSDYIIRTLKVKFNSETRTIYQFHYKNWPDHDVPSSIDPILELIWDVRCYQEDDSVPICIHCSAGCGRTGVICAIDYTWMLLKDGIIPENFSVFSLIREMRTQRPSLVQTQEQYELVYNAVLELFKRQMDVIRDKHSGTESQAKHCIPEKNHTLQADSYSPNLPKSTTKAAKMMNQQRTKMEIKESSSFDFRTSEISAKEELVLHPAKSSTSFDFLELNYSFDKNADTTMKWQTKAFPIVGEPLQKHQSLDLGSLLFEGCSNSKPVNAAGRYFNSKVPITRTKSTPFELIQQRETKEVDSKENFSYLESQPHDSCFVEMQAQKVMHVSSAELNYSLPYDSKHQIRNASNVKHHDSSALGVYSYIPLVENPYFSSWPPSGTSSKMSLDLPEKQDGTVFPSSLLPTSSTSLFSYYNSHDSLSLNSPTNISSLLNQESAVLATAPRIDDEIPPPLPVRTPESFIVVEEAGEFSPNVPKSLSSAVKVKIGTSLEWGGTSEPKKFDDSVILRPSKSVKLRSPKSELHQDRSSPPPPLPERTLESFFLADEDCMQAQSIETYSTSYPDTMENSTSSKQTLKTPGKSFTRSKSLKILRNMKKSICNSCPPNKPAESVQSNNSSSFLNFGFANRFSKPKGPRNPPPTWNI

[5] = Example 9: SHP2 catalytic domain 20 nM, pNPP 3 mM, pH 7.0, 25° C.

Structure (SMILES) | IC50 ([1]; […], LMWPTP) [µM] | IC50 [2] [µM] | IC50 ([3]; […], SHP2) [µM] | IC50 [4] [µM] | IC50 ([3]; pNPP at Km, pH 7.0, 25° C.) [µM] | also measured
O=C(NNc1ccccc1[N+](=O)[O-])C(c1ccc(-c2ccccc2)cc1)S(=O)(=O)O (stereo not drawn) [Compound L319-16-N55] | 90 | 43 | 82 | 35 | – | –
O=C(NC1=NN=C(c2ccc(Br)cc2)C1)C(=O)Nc1ccc(NC(=O)C(c2ccccc2)S(=O)(=O)O)cc1 (stereo not drawn) [Compound L319-20-M78] | – | – | – | – | 0.7 | –
O=C(N1CCC(c2ccc(Cl)c(Cl)c2)CC1)C(Br)(c1ccccc1)S(=O)(=O)O (stereo not drawn) [Compound L319-Br1-N47] | – | 26 | 22.8 | – | – | –
Cc1ccc(C(C(=O)Nc2ccc(N3CCOCC3)cc2)S(=O)(=O)O)cc1 (stereo not drawn) [Compound L319-11-M68] | > 100 | 3.2 | > 100 | 7.6 | – | –
O=C(Nc1nc2cc(Cl)ccc2o1)C(c1ccc(-c2ccccc2)cc1)S(=O)(=O)O (stereo not drawn) [Compound L319-16-M60] | 18 | 13 | 12 | 15 | – | –
O=C(Nc1ccc(NC(=O)C(c2ccccc2)S(=O)(=O)O)cc1)c1ccc(-c2ccc(Cl)cc2Cl)o1 (stereo not drawn) [Compound L319-04-B34] | – | – | – | – | 7.9 | –
O=C(Nc1ccc(N2CCOCC2)cc1)C(c1ccc2ccccc2c1)S(=O)(=O)O (stereo not drawn) [Compound L319-14-M68] | > 100 | 4.5 | > 100 | 8.3 | – | –
O=C(Nc1ccc(CNC(=O)C(c2ccccc2)S(=O)(=O)O)cc1)C(=O)Nc1ccc(-c2cccs2)cc1 (stereo not drawn) [Compound L319-24-M74] | – | – | – | – | 1.34 | –
O=C(Nc1ccc(CNC(=O)C(c2ccccc2)S(=O)(=O)O)cc1)C(=O)Nc1ccccc1-c1nc2ccccc2[nH]1 (stereo not drawn) [Compound L319-24-M77] | – | – | – | – | 1.1 | –
O=C(Nc1ccc(NC(=O)C(c2ccccc2)S(=O)(=O)O)cc1)C(=O)Nc1ccc(-c2cccs2)cc1 (stereo not drawn) [Compound L319-20-M74] | – | – | – | – | 0.9 | –
O=C(Nc1ccc(NC(=O)C(c2ccccc2)S(=O)(=O)O)cc1)C(=O)Nc1ccc(-c2ccccc2)cc1 (stereo not drawn) [Compound L319-20-N08] | – | – | – | – | 1.4 | –
O=C(Nc1cccc(NC(=O)C(c2ccccc2)S(=O)(=O)O)c1)C(=O)Nc1ccc(OCc2ccccc2)c(Cl)c1 (stereo not drawn) [Compound L319-22-M50] | – | – | – | – | 7.5 | –
O=C(Nc1ccc(OCc2ccccc2)c(Cl)c1)C(c1ccc2ccccc2c1)S(=O)(=O)O (stereo not drawn) [Compound L319-14-M50] | 28.8 | 25 | 24 | 23 | – | –
COc1ccc(CNC(=O)C(Br)(c2ccccc2)S(=O)(=O)O)c(OC)c1 (stereo not drawn) [Compound L319-Br1-N76] | – | 21.7 | 9.9 | – | – | –
Cc1c(Br)cc(NC(=O)C(=O)Nc2cccc(NC(=O)C(c3ccccc3)S(=O)(=O)O)c2)cc1Br (stereo not drawn) [Compound L319-22-M34] | – | – | – | – | 5.7 | –
CC(C)CCNC(=O)C(c1ccc2ccccc2c1)S(=O)(=O)O (stereo not drawn) [Compound L319-14-N03] | > 100 | 24 | 74 | 11.6 | – | –
O=C(NCc1ccc(NC(=O)C(c2ccccc2)S(=O)(=O)O)cc1)C(=O)Nc1ccc(-c2cccs2)cc1 (stereo not drawn) [Compound L319-23-M74] | – | – | – | – | 3.5 | –
O=C(Nc1ccc(N2CCOCC2)cc1)C(c1ccc(Br)cc1)S(=O)(=O)O (stereo not drawn) [Compound L319-12-M68] | 21 | 3.9 | > 100 | 7.43 | – | –

Structure (SMILES) | IC50 ([1]; […], LMWPTP) [µM] | IC50 [2] [µM] | IC50 ([3]; […], SHP2) [µM] | IC50 [4] [µM] | IC50 ([3]; pNPP at Km, pH 7.0, 25° C.) [µM] | also measured
O=C(CP(=O)(O)O)Nc1nc2ccccc2s1 [Compound L338N15] | – | – | – | – | – | IC50 ([1]; pNPP at Km, pH 7.0, 25° C.): 30 µM
CC(C)c1ccc(NC(=O)C(=O)Nc2ccc(NC(=O)C(c3ccccc3)S(=O)(=O)O)cc2)cc1 (stereo not drawn) [Compound L319-20-N25] | – | – | – | – | 2.3 | –
O=C(Nc1ccc(I)cc1)C(=O)Nc1ccc(NC(=O)C(c2ccccc2)S(=O)(=O)O)cc1 (stereo not drawn) [Compound L319-20-M24] | – | – | – | – | 1.5 | –
O=C(C(c1ccc(-c2ccccc2)cc1)S(=O)(=O)O)N1CCc2cc(Br)ccc21 (stereo not drawn) [Compound L319-16-M93] | 24 | 7.6 | 16 | 16 | – | –
O=C(Nc1ccc(Br)c2ccccc12)C(c1ccc(-c2ccccc2)cc1)S(=O)(=O)O (stereo not drawn) [Compound L319-16-M47] | 37 | 21 | 24 | 22 | – | –
O=C(O)C(=O)Nc1ccc(CNC(=O)C(c2ccccc2)S(=O)(=O)O)cc1 (stereo not drawn) [Lib-4, 2-oxo-2-((4-((2-phenyl-2-sulfoacetamido)methyl)phenyl)amino)acetic acid] | – | – | – | – | – | IC50 [3, 5]: > 50 µM
O=C(Nc1ccc(N2CCOCC2)cc1)C(c1ccccc1Cl)S(=O)(=O)O (stereo not drawn) [Compound L319-07-M68] | > 100 | 11 | > 100 | > 100 | – | –
O=C(O)C(=O)Nc1cccc(NC(=O)C(c2ccccc2)S(=O)(=O)O)c1 (stereo not drawn) [Lib-2, 2-oxo-2-((3-(2-phenyl-2-sulfoacetamido)phenyl)amino)acetic acid] | – | – | – | – | – | IC50 [3, 5]: > 50 µM
O=C(Nc1cccc(Cc2ccccc2)c1)C(=O)Nc1cccc(NC(=O)C(c2ccccc2)S(=O)(=O)O)c1 (stereo not drawn) [Compound L319-22-M51] | – | – | – | – | 10 | –
O=C(NNc1ccccc1)C(c1ccc([N+](=O)[O-])cc1)S(=O)(=O)O (stereo not drawn) [Compound L319-08-N58] | 11 | 16 | 7.28 | 9.9 | – | –
CC1(C)S[C@@H]2[C@H](NC(=O)C(c3ccccc3)S(=O)(=O)O)C(=O)N2[C@H]1C(=O)O (stereo partly drawn) [sulbenicillin, reference compound] | – | – | – | – | – | Inhibition of SHP2 at 200 μM ([3]; 200 μM compound concentration): no activity
O=C(Nc1ccc(N2CCOCC2)cc1)C(c1ccccc1F)S(=O)(=O)O (stereo not drawn) [Compound L319-06-M68] | > 100 | 22 | > 100 | > 100 | – | –
O=C(O)C(=O)Nc1ccc(NC(=O)C(c2ccccc2)S(=O)(=O)O)cc1 (stereo not drawn) [Lib-1, 2-oxo-2-((4-(2-phenyl-2-sulfoacetamido)phenyl)amino)acetic acid] | – | – | – | – | – | IC50 [3, 5]: > 50 µM
O=C(Nc1ccc(N2CCOCC2)cc1)C(c1cccc(F)c1)S(=O)(=O)O (stereo not drawn) [Compound L319-13-M68] | 27 | 4.3 | > 100 | 10 | – | –
O=C(NNc1ccccc1)C(c1ccc(-c2ccccc2)cc1)S(=O)(=O)O (stereo not drawn) [Compound L319-16-N58] | 32 | 20 | 22 | 20 | – | –
O=C(Nc1nc2ccccc2s1)C(Br)(c1ccccc1)S(=O)(=O)O (stereo not drawn) [Compound L319-Br1-N15] | – | 0.2 | 13.2 | – | – | –
O=C(O)C(c1ccc(-c2ccccc2)cc1)S(=O)(=O)O (stereo not drawn) [Compound L319-16] | > 100 | 11 | 25 | 5.19 | – | –
O=C(O)C(=O)NCc1ccc(NC(=O)C(c2ccccc2)S(=O)(=O)O)cc1 (stereo not drawn) [Lib-3, 2-oxo-2-((4-(2-phenyl-2-sulfoacetamido)benzyl)amino)acetic acid] | – | – | – | – | – | IC50 [3, 5]: > 50 µM
